Data taken from publication PMC7689250, “Synthetic Peptide Libraries Designed From a Minimal Alpha-Helical Domain of AS-48-Bacteriocin Homologs Exhibit Potent Antibacterial Activity” (Frontiers in Microbiology, 2020).
Where two headings read alike, the source gives them in different places. Residues, ends and D or L forms follow the SMILES beside them.

Legend:
[1] = test system: S. pyogenes (M1); type: cell-based, Streptococcus pyogenes; details: for MBC: M1
Procedure: (§1) Peptides were screened against Escherichia coli (BL21), Streptococcus pyogenes (M1T1 5448, hereby referred to as M1), Pseudomonas aeruginosa (PAO1), and Staphylococcus aureus (USA300). Overnight bacterial cultures were grown in optimal media for each species: Luria-Bertani (LB) broth for E. coli, P. aeruginosa, and S. aureus, and Todd-Hewitt (TH) broth for S. pyogenes. Cultures were pelleted and re-suspended in Mueller-Hinton (MH) broth for peptide screens or minimal inhibitory concentration (MIC) assays, with 1 × 10^6 CFU/mL bacteria added per well ([Wiegand et al., 2008]). MICs for each parent peptide were identified against each bacterial strain as previously described ([Fields et al., 2018]). Members of each peptide library were screened against each bacterial strain at half of the MIC of the corresponding parent peptide to identify library members with increased antimicrobial activity relative to the parent peptide. […] Minimal bactericidal concentrations (MBCs) were determined following the respective MIC assays by plating aliquots from wells corresponding to each peptide concentration from the 96-well plate used for the MIC on species-appropriate agar. Plates were incubated at 37°C overnight, and MBCs were identified as the lowest concentrations of peptide at which no colonies were obtained. A Synergy H1 Microplate Reader (BioTek, Winooski, VT, United States) was used to determine the MICs and identify peptides with greater antimicrobial activity than the corresponding parent peptide by measuring OD 600 of the bacterial cultures in 96-well microtiter plates.

[2] = test system: E. coli (BL21); type: cell-based, Escherichia coli; details: for MBC: BL21; for MIC: BL21, 16 h
Procedure: as §1

[3] = test system: S. aureus (USA300); type: cell-based, Staphylococcus aureus; details: for MBC: USA300; for MIC: USA300, 16 h
Procedure: as §1

[4] = test system: P. aeruginosa (PAO1); type: cell-based, Pseudomonas aeruginosa; details: for MBC: PAO1; for MIC: PAO1, 16 h
Procedure: as §1

Row | Compound | MBC [1] | MIC ([1]; M1, 16 h) | MBC [2] | MIC [2] | MBC [3] | MIC [3] | MBC [4] | MIC [4] | MIC ([1]; S. pyogenes M1)
1 | CC[C@H](C)[C@H](NC(=O)[C@H](CCCCN)NC(=O)[C@H](CCCCN)NC(=O)CNC(=O)[C@H](CCC(=O)O)NC(=O)[C@H](CCC(N)=O)NC(=O)[C@@H](NC(=O)[C@H](Cc1c[nH]c2ccccc12)NC(=O)[C@H](CCCCN)NC(=O)[C@H](CCCCN)NC(=O)[C@H](CC(C)C)NC(=O)[C@H](CCCNC(=N)N)NC(=O)[C@H](CCC(N)=O)NC(=O)[C@H](Cc1ccccc1)NC(=O)[C@@H](NC(=O)[C@H](CCCCN)NC(=O)[C@H](CCC(=O)O)NC(=O)[C@@H](NC(=O)CNC(=O)[C@H](C)N)[C@@H](C)O)[C@@H](C)CC)[C@@H](C)CC)C(=O)N[C@@H](C)C(=O)N[C@@H](CCCCN)C(=O)N[C@@H](CCCNC(=N)N)C(=O)N[C@@H](C)C(=O)N[C@@H](Cc1c[nH]c2ccccc12)C(=O)O [Syn-larvacin-31] (H-AGTEKIFQRLKKWIQEGKKIAKRAW-OH; N-terminus and C-terminus assumed) | 0.25 µM | 0.25 µM | 1 µM | 1 µM | 8 µM | 8 µM | 128 µM | 64 µM | 
2 | CC[C@H](C)[C@H](NC(=O)[C@H](CCCCN)NC(=O)[C@H](CCCCN)NC(=O)[C@H](Cc1c[nH]c2ccccc12)NC(=O)[C@H](CCC(=O)O)NC(=O)[C@H](CC(N)=O)NC(=O)[C@@H](NC(=O)[C@@H](NC(=O)[C@H](CCCCN)NC(=O)[C@H](CCCCN)NC(=O)[C@H](CC(C)C)NC(=O)[C@H](CCCNC(=N)N)NC(=O)[C@H](CC(N)=O)NC(=O)[C@H](Cc1ccccc1)NC(=O)[C@@H](NC(=O)[C@H](CCCCN)NC(=O)[C@H](CCC(=O)O)NC(=O)[C@@H](NC(=O)CNC(=O)[C@H](C)N)[C@@H](C)O)[C@@H](C)CC)[C@@H](C)O)[C@@H](C)CC)C(=O)N[C@@H](C)C(=O)N[C@@H](CCCCN)C(=O)N[C@@H](CCCNC(=N)N)C(=O)N[C@@H](C)C(=O)N[C@@H](Cc1c[nH]c2ccccc12)C(=O)O [Syn-larvacin-48] (H-AGTEKIFNRLKKTINEWKKIAKRAW-OH; N-terminus and C-terminus assumed) | 8 µM | 8 µM | 4 µM | 4 µM | 8 µM | 8 µM | 32 µM | 16 µM | 
3 | CC[C@H](C)[C@H](NC(=O)[C@H](CCCCN)NC(=O)CNC(=O)[C@H](Cc1ccccc1)NC(=O)[C@H](CCCCN)NC(=O)[C@H](CCCNC(=N)N)NC(=O)[C@H](CC(C)C)NC(=O)[C@H](Cc1ccc(O)cc1)NC(=O)[C@H](CCC(=O)O)NC(=O)[C@H](CC(C)C)NC(=O)[C@H](CC(C)C)NC(=O)[C@H](CCC(=O)O)NC(=O)[C@H](CCCCN)NC(=O)[C@@H](NC(=O)[C@H](CC(C)C)NC(=O)[C@H](CCCNC(=N)N)NC(=O)[C@H](CCC(N)=O)NC(=O)[C@H](C)NC(=O)CNC(=O)[C@@H](N)Cc1c[nH]c2ccccc12)[C@@H](C)O)C(=O)N[C@@H](C)C(=O)N[C@@H](CCCNC(=N)N)C(=O)N[C@@H](CCCCN)C(=O)N[C@@H](C)C(=O)N[C@@H](Cc1c[nH]c2ccccc12)C(=O)O [Syn-xiamencin-15] (H-WGAQRLTKELLEYLRKFGKIARKAW-OH; N-terminus and C-terminus assumed) | 1 µM | 1 µM | 2 µM | 2 µM | 128 µM | 64 µM | >128 µM | >128 µM | 
4 | CC[C@H](C)[C@H](NC(=O)[C@H](CCCNC(=N)N)NC(=O)[C@H](C)NC(=O)[C@H](CCCCN)NC(=O)[C@H](CCCCN)NC(=O)CNC(=O)[C@H](Cc1ccccc1)NC(=O)[C@H](CCCCN)NC(=O)[C@H](CCCNC(=N)N)NC(=O)[C@H](CC(C)C)NC(=O)[C@H](CCC(=O)O)NC(=O)[C@H](CCC(=O)O)NC(=O)[C@H](CCCCN)NC(=O)[C@H](CC(C)C)NC(=O)[C@H](Cc1ccc(O)cc1)NC(=O)[C@H](CC(C)C)NC(=O)[C@@H](NC(=O)[C@H](CC(C)C)NC(=O)[C@H](C)NC(=O)[C@H](CCC(N)=O)NC(=O)[C@H](CCCNC(=N)N)NC(=O)CNC(=O)[C@@H](N)Cc1c[nH]c2ccccc12)[C@@H](C)O)C(=O)N[C@@H](C)C(=O)N[C@@H](Cc1c[nH]c2ccccc12)C(=O)O [Syn-xiamencin-13] (H-WGRQALTLYLKEELRKFGKKARIAW-OH; N-terminus and C-terminus assumed) | 0.25 µM |  | 32 µM | 16 µM | >128 µM | >128 µM | >128 µM | >128 µM | 0.25 µM
5 | CC[C@H](C)[C@H](NC(=O)[C@H](CCCCN)NC(=O)[C@H](CCCCN)NC(=O)[C@H](CCCCN)NC(=O)[C@H](CC(C)C)NC(=O)[C@H](Cc1ccccc1)NC(=O)[C@H](CCC(N)=O)NC(=O)[C@H](CCCNC(=N)N)NC(=O)[C@@H](NC(=O)[C@@H](NC(=O)[C@H](CCC(=O)O)NC(=O)[C@H](CCCCN)NC(=O)CNC(=O)[C@H](C)N)[C@@H](C)O)[C@@H](C)CC)C(=O)N[C@@H](CCC(N)=O)C(=O)N[C@@H](CCC(=O)O)C(=O)N[C@@H](CCCCN)C(=O)NCC(=O)N[C@@H](CCCCN)C(=O)N[C@@H](CCCNC(=N)N)C(=O)N[C@@H](C)C(=O)N[C@H](C(=O)N[C@H](C(=O)N[C@@H](C)C(=O)N[C@@H](Cc1c[nH]c2ccccc12)C(=O)O)[C@@H](C)CC)[C@@H](C)O [Syn-larvacin-1] (H-AGKETIRQFLKKKIQEKGKRATIAW-OH; N-terminus and C-terminus assumed) | 64 µM | 8 µM | >128 µM | 32 µM | >128 µM | >128 µM | >128 µM | >128 µM | 
6 | CC[C@H](C)[C@H](NC(=O)[C@H](CCCCN)NC(=O)CNC(=O)[C@H](Cc1ccccc1)NC(=O)[C@H](CCCCN)NC(=O)[C@H](CCCNC(=N)N)NC(=O)[C@H](CC(C)C)NC(=O)[C@H](Cc1ccc(O)cc1)NC(=O)[C@H](CCC(=O)O)NC(=O)[C@H](CC(C)C)NC(=O)[C@H](CC(C)C)NC(=O)[C@H](CCC(=O)O)NC(=O)[C@H](CCCCN)NC(=O)[C@@H](NC(=O)[C@H](CC(C)C)NC(=O)[C@H](CCCNC(=N)N)NC(=O)[C@H](CCC(N)=O)NC(=O)[C@H](C)NC(=O)CNC(=O)[C@H](C)N)[C@@H](C)O)C(=O)N[C@@H](C)C(=O)N[C@@H](CCCNC(=N)N)C(=O)N[C@@H](CCCCN)C(=O)N[C@@H](C)C(=O)N[C@@H](Cc1c[nH]c2ccccc12)C(=O)O [Syn-xiamencin-7] (H-AGAQRLTKELLEYLRKFGKIARKAW-OH; N-terminus and C-terminus assumed) | 0.5 µM |  | 4 µM | 4 µM | >128 µM | >128 µM | 128 µM | 64 µM | 0.5 µM
7 | CC[C@H](C)[C@H](NC(=O)[C@H](Cc1ccccc1)NC(=O)[C@H](C)NC(=O)[C@H](CCCCN)NC(=O)[C@H](CCCCN)NC(=O)CNC(=O)[C@H](CCCNC(=N)N)NC(=O)[C@H](CCCCN)NC(=O)[C@H](CCCNC(=N)N)NC(=O)[C@H](CC(C)C)NC(=O)[C@H](CCC(=O)O)NC(=O)[C@H](CCC(=O)O)NC(=O)[C@H](CCCCN)NC(=O)[C@H](CC(C)C)NC(=O)[C@H](Cc1ccc(O)cc1)NC(=O)[C@H](CC(C)C)NC(=O)[C@@H](NC(=O)[C@H](CC(C)C)NC(=O)[C@H](C)NC(=O)[C@H](CCC(N)=O)NC(=O)[C@H](CCCNC(=N)N)NC(=O)CNC(=O)[C@H](C)N)[C@@H](C)O)C(=O)N[C@@H](C)C(=O)N[C@@H](Cc1c[nH]c2ccccc12)C(=O)O [Syn-xiamencin-1] (H-AGRQALTLYLKEELRKRGKKAFIAW-OH; N-terminus and C-terminus assumed) | 16 µM | 16 µM | 32 µM | 32 µM | >128 µM | >128 µM | >128 µM | >128 µM | 
8 | CC[C@H](C)[C@H](NC(=O)[C@H](CCCNC(=N)N)NC(=O)[C@H](C)NC(=O)[C@H](CCCCN)NC(=O)[C@H](CCCNC(=N)N)NC(=O)CNC(=O)[C@@H](NC(=O)[C@H](CCCCN)NC(=O)[C@H](CCCNC(=N)N)NC(=O)[C@@H](NC(=O)[C@H](CCC(=O)O)NC(=O)[C@H](CCCNC(=N)N)NC(=O)[C@H](CCCNC(=N)N)NC(=O)[C@H](CC(C)C)NC(=O)[C@H](Cc1ccc(O)cc1)NC(=O)[C@H](C)NC(=O)[C@H](CCCCN)NC(=O)[C@@H](NC(=O)[C@H](Cc1c[nH]c2ccccc12)NC(=O)[C@H](CCC(N)=O)NC(=O)[C@H](CCCNC(=N)N)NC(=O)CNC(=O)[C@H](C)N)[C@@H](C)CC)[C@@H](C)CC)C(C)C)C(=O)N[C@@H](C)C(=O)N[C@@H](Cc1c[nH]c2ccccc12)C(=O)O [Syn-sordellicin-45] (H-AGRQWIKAYLRREIRKVGRKARIAW-OH; N-terminus and C-terminus assumed) | 2 µM | 2 µM | 1 µM | 1 µM | 32 µM | 32 µM | 32 µM | 16 µM | 
